Values joined by “and” are separate entries in the source; they are usually repeats but may differ in a detail not shown here. Identical values can stand only once.
The compounds below were run on BT-474 (assay: normalised viability (% of control), CellTiter-Blue; higher = more viable cells (100 = DMSO, 0 = benzethonium chloride kill control)). Conditions: 0.099 nM; incubation time: 72 h.
How it was run: (§1)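 384-well plates were pre-loaded with compound in 5 µl medium before 20 µl of breast cancer cell suspension was seeded. Following 72 h incubation, 2.5 µl CellTiter-Blue reagent was added for 2 h at 37 °C. Fluorescence was read at 560/590 nm and plates were normalised to vehicle (100) and a positive kill control (0), checked by Z'-factor. Normalised viability is reported at a single listed concentration of the series.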

`CCN(CC)CCCC(C)Nc1c2ccc(Cl)cc2nc2ccc(OC)cc12` (centres undefined) [Mepacrine] gave a normalised viability of 74.2%.

Same assay, conditions: 0.1 nM; incubation time: 72 h

Going from `O=C(/C=C/c1cccnc1)NCCCCC1CCN(C(=O)c2ccccc2)CC1` [FK-866] to `CC[C@@H]1C(=O)N(C)c2cnc(Nc3ccc(C(=O)NC4CCN(C)CC4)cc3OC)nc2N1C1CCCC1` [BI 2536], the normalised viability rises from 99.3% to 101%.

Same assay, conditions: 1 nM; incubation time: 72 h

Compared with `Nc1nc(F)nc2c1ncn2[C@@H]1O[C@H](CO)[C@@H](O)[C@@H]1O` [Fludarabine], `CCCS(=O)(=O)Nc1ccc(F)c(C(=O)c2c[nH]c3ncc(-c4ccc(Cl)cc4)cc23)c1F` [Vemurafenib] is higher in normalised viability: 67.6% for the first, 99.8% for the second.

First: O=C(O)C1(C(=O)O)CCC1.[NH2-].[NH2-].[Pt+2] [Carboplatin]
Second: O=C(O)C(=O)O.[NH-][C@@H]1CCCC[C@H]1[NH-].[Pt+2] [Oxaliplatin]
The normalised viability of the first is higher: 109% for the first, 103% for the second.

Going from `N#Cc1ccc(C(c2ccc(C#N)cc2)n2cncn2)cc1` [Letrozole] to `Cc1ccc(-c2cc(C(F)(F)F)nn2-c2ccc(S(N)(=O)=O)cc2)cc1` [Celecoxib], the normalised viability rises from 73.4% to 76.1%.

Compared with `C1CN1c1nc(N2CC2)nc(N2CC2)n1` [Triethylenemelamine], `CCN(CC)CCCC(C)Nc1c2ccc(Cl)cc2nc2ccc(OC)cc12` (centres undefined) [Mepacrine] is lower in normalised viability: 117% for the first, 113% for the second.

With `Nc1ncn([C@H]2C[C@H](O)[C@@H](CO)O2)c(=O)n1` [Decitabine] the normalised viability was 98.4% and 79.8%.

The compounds below were run on MDA-MB-453 in the same assay as above. Conditions: 0.099 nM; incubation time: 72 h.
How it was run: as §1

`CCN(CC)CCCC(C)Nc1c2ccc(Cl)cc2nc2ccc(OC)cc12` (centres undefined) [Mepacrine] showed a normalised viability of 98%.

Same assay, conditions: 0.1 nM; incubation time: 72 h

First: O=C(/C=C/c1cccnc1)NCCCCC1CCN(C(=O)c2ccccc2)CC1 [FK-866]
Second: CC[C@@H]1C(=O)N(C)c2cnc(Nc3ccc(C(=O)NC4CCN(C)CC4)cc3OC)nc2N1C1CCCC1 [BI 2536]
The normalised viability of the first is higher: 103% for the first, 94.7% for the second.

Same assay, conditions: 1 nM; incubation time: 72 h

Compared with `Nc1nc(F)nc2c1ncn2[C@@H]1O[C@H](CO)[C@@H](O)[C@@H]1O` [Fludarabine], `CCCS(=O)(=O)Nc1ccc(F)c(C(=O)c2c[nH]c3ncc(-c4ccc(Cl)cc4)cc23)c1F` [Vemurafenib] is lower in normalised viability: 102% for the first, 89.8% for the second.

Going from `O=C(O)C1(C(=O)O)CCC1.[NH2-].[NH2-].[Pt+2]` [Carboplatin] to `O=C(O)C(=O)O.[NH-][C@@H]1CCCC[C@H]1[NH-].[Pt+2]` [Oxaliplatin], the normalised viability rises from 98.7% to 100%.

First: N#Cc1ccc(C(c2ccc(C#N)cc2)n2cncn2)cc1 [Letrozole]
Second: Cc1ccc(-c2cc(C(F)(F)F)nn2-c2ccc(S(N)(=O)=O)cc2)cc1 [Celecoxib]
The normalised viability of the first is lower: 96.4% for the first, 97.3% for the second.

Compared with `C1CN1c1nc(N2CC2)nc(N2CC2)n1` [Triethylenemelamine], `CCN(CC)CCCC(C)Nc1c2ccc(Cl)cc2nc2ccc(OC)cc12` (centres undefined) [Mepacrine] is higher in normalised viability: 104% for the first, 106% for the second.

In the case of `Nc1ncn([C@H]2C[C@H](O)[C@@H](CO)O2)c(=O)n1` [Decitabine], the normalised viability is reported as 93% and 107%.

What follows are compounds tested on HDQ-P1 in the same assay as above. Conditions: 0.099 nM; incubation time: 72 h.
How it was run: as §1

Compound `CCN(CC)CCCC(C)Nc1c2ccc(Cl)cc2nc2ccc(OC)cc12` (centres undefined) [Mepacrine] has a normalised viability of 115%.

Same assay, conditions: 0.1 nM; incubation time: 72 h

First: O=C(/C=C/c1cccnc1)NCCCCC1CCN(C(=O)c2ccccc2)CC1 [FK-866]
Second: CC[C@@H]1C(=O)N(C)c2cnc(Nc3ccc(C(=O)NC4CCN(C)CC4)cc3OC)nc2N1C1CCCC1 [BI 2536]
The normalised viability of the first is higher: 105% for the first, 94% for the second.

Same assay, conditions: 1 nM; incubation time: 72 h

Compared with `Nc1nc(F)nc2c1ncn2[C@@H]1O[C@H](CO)[C@@H](O)[C@@H]1O` [Fludarabine], `CCCS(=O)(=O)Nc1ccc(F)c(C(=O)c2c[nH]c3ncc(-c4ccc(Cl)cc4)cc23)c1F` [Vemurafenib] is lower in normalised viability: 134% for the first, 96.3% for the second.

Going from `O=C(O)C1(C(=O)O)CCC1.[NH2-].[NH2-].[Pt+2]` [Carboplatin] to `O=C(O)C(=O)O.[NH-][C@@H]1CCCC[C@H]1[NH-].[Pt+2]` [Oxaliplatin], the normalised viability rises from 109% to 130%.

Going from `N#Cc1ccc(C(c2ccc(C#N)cc2)n2cncn2)cc1` [Letrozole] to `Cc1ccc(-c2cc(C(F)(F)F)nn2-c2ccc(S(N)(=O)=O)cc2)cc1` [Celecoxib], the normalised viability rises from 90.9% to 114%.

Going from `C1CN1c1nc(N2CC2)nc(N2CC2)n1` [Triethylenemelamine] to `CCN(CC)CCCC(C)Nc1c2ccc(Cl)cc2nc2ccc(OC)cc12` (centres undefined) [Mepacrine], the normalised viability falls from 109% to 108%.

For `Nc1ncn([C@H]2C[C@H](O)[C@@H](CO)O2)c(=O)n1` [Decitabine], the normalised viability was 114% and 108%.

What follows are compounds tested on HCC1599 in the same assay as above. Conditions: 0.099 nM; incubation time: 72 h.
How it was run: as §1

Work on `CCN(CC)CCCC(C)Nc1c2ccc(Cl)cc2nc2ccc(OC)cc12` (centres undefined) [Mepacrine] yielded a normalised viability of 102%.

Same assay, conditions: 0.1 nM; incubation time: 72 h

Compared with `O=C(/C=C/c1cccnc1)NCCCCC1CCN(C(=O)c2ccccc2)CC1` [FK-866], `CC[C@@H]1C(=O)N(C)c2cnc(Nc3ccc(C(=O)NC4CCN(C)CC4)cc3OC)nc2N1C1CCCC1` [BI 2536] is lower in normalised viability: 105% for the first, 83.2% for the second.

Same assay, conditions: 1 nM; incubation time: 72 h

Going from `Nc1nc(F)nc2c1ncn2[C@@H]1O[C@H](CO)[C@@H](O)[C@@H]1O` [Fludarabine] to `C1CN1c1nc(N2CC2)nc(N2CC2)n1` [Triethylenemelamine], the normalised viability falls from 92.6% to 76.4%.

Going from `O=C(O)C1(C(=O)O)CCC1.[NH2-].[NH2-].[Pt+2]` [Carboplatin] to `N#Cc1ccc(C(c2ccc(C#N)cc2)n2cncn2)cc1` [Letrozole], the normalised viability rises from 91.3% to 103%.

`Nc1ncn([C@H]2C[C@H](O)[C@@H](CO)O2)c(=O)n1` [Decitabine] was tested, and the normalised viability was 107% and 109%.

Source: the supplement of paper PMC4862054
